According to patent US5393729A, “3-aryl-pyrone derivatives” (Bayer Aktiengesellschaft, priority 1992, dated 1995):
Like-named read-outs stand apart in the source and are kept apart here.

Key:
[1] = tested on: larvae of the green rice cicada (Nephotettix cincticeps); assay: whole plant or invertebrate; format: in vivo; conditions: 144 h, read-out: destruction of cicadas
Method: (§1) Solvent: 7 parts by weight of dimethylformamide
(§2) Emulsifier: 1 part by weight of alkylaryl polyglycol ether
(§3) To produce a suitable preparation of active compound, 1 part by weight of active compound is mixed with the stated amount of solvent and the stated amount of emulsifier, and the concentrate is diluted with water to the desired concentration.
Rice seedlings (Oryza satira) are treated by being dipped into the preparation of active compound of the desired concentration and are infested with larvae of the green rice cicada (Nephotettix cincticeps) while the seedlings are still moist.
After the specified period of time, the destruction in % is determined. 100% means that all the cicadas have been killed; 0% means that none of the cicadas have been killed.

[2] = tested on: common spider mite or greenhouse red spider mite (Tetranychus urticae); assay: Tetranychus test (OP resistant); format: in vivo; conditions: 168 h, read-out: destruction of spider mites
Method: Tetranychus test (OP resistant)
as §1, §2, §3
Bean plants (Phaseolus vulgaris) which are heavily infested with all development stages of the common spider mite or greenhouse red spider mite (Tetranychus urticae) are treated by being dipped into the preparation of active compound of the desired concentration.
After the specified period of time, the destruction in % is determined. 100% means that all the spider mites have been killed; 0% means that none of the spider mites have been killed.

Trichinella spiralis = Trichinella spiralis in vitro; conditions: 120 h, 5 days at 19° C., read-out: destruction (very good action)
Method: Trichinella spiralis in vitro
Trichina larvae are isolated from the muscles of mice and washed with 0.9% NaCl supplemented with 20 μg/ml sisomycin and 2 μg/ml of clotrimazole. The actual incubation for approximately 20 trichinas per measurement was effected in 2 ml of a solution consisting of 10 g Bacto Casitone, 5 g of yeast (yeast extract), 2.5 g of glucose, 0.4 g of KH2 PO4, 0.4 g of K2 HPO4 per 500 ml, pH 7.2, containing 10 μg/ml of sisomycin and […] of clotrimazole. 10 mg of the substance to be tested are dissolved in 0.5 ml of DMSO, and such an amount is added to the incubation medium that the end concentrations are 100, 10 and 1 μg/ml. After incubation for 5 days at 19° C., the test is evaluated. The following key is used for the evaluation: 0=no action, the number of live larvae and worms is lower than in the case of the control; 2=good action, dead trichinas can be found; 3=very good action, all trichinas are dead.

Digitaria = assay: Pre-emergence test, Digitaria; format: in vivo; conditions: 504 h, after three weeks, 0%=no action, 100%=total destruction, read-out: % Activity (damage to the plants)
Method: (§4) Solvent: 5 parts by weight of acetone
as §2
(§5) To produce a suitable preparation of active compound, 1 part by weight of active compound is mixed with the stated amount of solvent, the stated amount of emulsifier is added and the concentrate is diluted with water to the desired concentration.
(§6) Seeds of the test plants are sown in normal soil and, after 24 hours, watered with the preparation of the active compound. It is expedient to keep constant the amount of water per unit area. The concentration of the active compound in the preparation is of no importance, only the amount of active compound applied per unit area being decisive. After three weeks, the degree of damage to the plants is rated in % damage in comparison to the development of the untreated control. The figures denote:
(§7) 0%=no action (like untreated control)
(§8) In this test, the following results were obtained at an exemplary application rate of 500 g/ha, the active compounds being tolerated well to very well by soya beans: […]

Echinochloa = assay: Pre-emergence test, Echinochloa; format: in vivo; conditions: 504 h, after three weeks, 0%=no action, 100%=total destruction, read-out: % Activity (damage to the plants)
Method: as §4, §2, §5, §6, §7, §8

Panicum = assay: Pre-emergence test, Panicum; format: in vivo; conditions: 504 h, after three weeks, 0%=no action, 100%=total destruction, read-out: % Activity (damage to the plants)
Method: as §4, §2, §5, §6, §7, §8

Setaria = assay: Pre-emergence test, Setaria; format: in vivo; conditions: 504 h, after three weeks, 0%=no action, 100%=total destruction, read-out: % Activity (damage to the plants)
Method: as §4, §2, §5, §6, §7, §8

[3] = tested on: Lucilia cuprina resistant larvae; assay: Test with Lucilia cuprina resistant larvae; format: in vivo; conditions: after 24 hours, read-out: degree of destruction
Method: Test with Lucilia cuprina resistant larvae
Emulsifier: 35 parts by weight of ethylene glycolmonomethyl ether 35 parts by weight of nonylphenol polyglycol ether
To produce a suitable preparation of active compound, three parts by weight of active compound are mixed with seven parts by weight of the abovementioned mixture and the concentrate thus obtained is diluted with water to the particular desired concentration.
About 20 Lucilia cuprina res. larvae are introduced into a test tube which contains approx. 1 cm^3 of horse meat and 0.5 ml of the preparation of active compound. After 24 hours, the degree of destruction is determined.

[4] = tested on: black bean aphid (Aphis fabae); assay: whole plant or invertebrate; format: in vivo; conditions: active compound concentration 0.1%, bean plants watered, systemic action, read-out: destruction of aphids
Method: Aphis test (systemic action)
as §1, §2, §3
Bean plants (Vicia faba) which are heavily infested with the black bean aphid (Aphis fabae) are each watered with 20 ml of the preparation of the active compound of the desired concentration in such a way that the preparation of active compound penetrates the soil without wetting the shoot. The active compound is taken up by the roots and translocated to the shoot.
After the specified period of time, the destruction in % is determined. 100% means that all the aphids have been killed; 0% means that none of the aphids have been killed.

[5] = tested on: caterpillars of the diamond-back moth (Plutella maculipennis); assay: whole plant or invertebrate; format: in vivo; conditions: in Brassica oleracea, 168 h, read-out: destruction of caterpillars
Method: as §1, §2, §3
Cabbage leaves (Brassica oleracea) are treated by being dipped into the preparation of active compound of the desired concentration and are infested with caterpillars of the diamond-back moth (Plutella maculipennis) while the leaves are still moist.
After the specified periods of time, the destruction in % is determined. 100% means that all the caterpillars have been killed; 0% means that none of the caterpillars have been killed.

[6] = tested on: mustard beetle larvae (Phaedon cochleariae); assay: Phaedon larvae test; format: in vivo; conditions: 168 h, after 7 days, active compound concentration 0.1%, cabbage leaves dipped, read-out: destruction of beetle larvae
Method: as §1, §2, §3
After the specified periods of time, the destruction in % is determined. 100% means that all the beetle larvae have been killed; 0% means that none of the beetle larvae have been killed.

[7] = after 7 days, active compound concentration 0.01%, OP resistant, bean plants dipped

SMILES | mortality at 0.1 % [1] [%] | activity at 500 g/ha (Digitaria) [%] | activity at 500 g/ha (Echinochloa) [%] | activity at 500 g/ha (Panicum) [%] | activity at 500 g/ha (Setaria) [%] | also measured
CCOC(=O)Oc1cc(C(C)(C)C)oc(=O)c1-c1c(C)cc(C)cc1C [Example 3, 4-ethoxycarbonyloxy-6-tert.-butyl-3-(2,4,6-trimethylphenyl)pyrone] | 100 | – | – | – | – | mortality at 0.01 % [2]: 100%
Cc1cc(C)c(-c2c(O)c(C#N)c(-c3ccccc3Cl)oc2=O)c(C)c1 [Example 13] | – | – | – | – | – | killing at 100 ppm (Trichinella spiralis): 100%
CCOC(=O)c1c(-c2ccccc2F)oc(=O)c(-c2c(C)cc(C)cc2C)c1O [Example 14] | – | – | – | – | – | killing at 100 ppm (Trichinella spiralis): 100%
CCOC(=O)c1c(-c2ccc([N+](=O)[O-])cc2)oc(=O)c(-c2c(C)cc(C)cc2C)c1O [Example 15] | – | – | – | – | – | killing at 100 ppm (Trichinella spiralis): 100%
Cc1cc(C)c(-c2c(O)c(C(=O)N3CCOCC3)c(C)oc2=O)c(C)c1 [Example 18] | – | – | – | – | – | killing at 100 ppm (Trichinella spiralis): 100%
Cc1cc(C)c(-c2c(O)c(C(=O)c3ccccc3)c(C)oc2=O)c(C)c1 [Example 26] | – | – | – | – | – | killing at 100 ppm (Trichinella spiralis): 100%
Cc1cc(C)c(-c2c(O)cc(C(C)(C)C)oc2=O)c(C)c1 [Example 31] | 100 | 90 to 100 | 70 to 100 | 95 to 100 | 70 to 100 | mortality at 0.01 % [2, 7]: 100%
Cc1cc(C)c(-c2c(O)c(C)c(C)oc2=O)c(C)c1 [Example 32] | 100 | 90 to 100 | 70 to 100 | 95 to 100 | 70 to 100 | mortality at 1000 ppm [3]: 100%; mortality at 0.1 % [4]: 100%
Cc1cc(C)c(-c2c(O)c(C(C)C)c(C)oc2=O)c(C)c1 [Example 33] | – | 90 to 100 | 70 to 100 | 95 to 100 | 70 to 100 | –
Cc1cc(C)c(-c2c(O)cc(C)oc2=O)c(C)c1 [Example 34] | 100 | 90 to 100 | 70 to 100 | 95 to 100 | 70 to 100 | –
CCc1c(C)oc(=O)c(-c2c(C)cc(C)cc2C)c1O [Example 35] | 100 | 90 to 100 | – | 95 to 100 | 70 to 100 | –
CCCc1c(CC)oc(=O)c(-c2c(C)cc(C)cc2C)c1O [Example 37] | 100 | – | 70 to 100 | 95 to 100 | 70 to 100 | killing at 100 ppm (Trichinella spiralis): 100%
Cc1cc(C)c(-c2c(O)cc(-c3ccccc3)oc2=O)c(C)c1 [Example 46] | – | 90 to 100 | 70 to 100 | 95 to 100 | – | mortality at 0.1 % [5]: 100%; mortality at 1000 ppm [3]: 100%; mortality at 0.1 % [6]: 100%
Cc1cc(C)c(-c2c(O)cc(-c3ccccc3Cl)oc2=O)c(C)c1 [Example 47] | – | – | – | – | – | mortality at 0.1 % [6]: 100%
Cc1cc(C)c(-c2c(O)cc(-c3ccccc3F)oc2=O)c(C)c1 [Example 51] | 100 | – | – | – | – | –
Cc1cc(C)c(-c2c(O)cc(-c3ccc(F)cc3)oc2=O)c(C)c1 [Example 52] | 100 | 90 to 100 | 70 to 100 | 95 to 100 | 70 to 100 | mortality at 0.1 % [5]: 100%

SMILES | mortality at 0.1 % [1] [%] | activity at 500 g/ha (Digitaria) [%] | activity at 500 g/ha (Echinochloa) [%] | activity at 500 g/ha (Panicum) [%] | activity at 500 g/ha (Setaria) [%] | also measured
Cc1cc(C)c(-c2c(O)cc(-c3ccc(Cl)cc3)oc2=O)c(C)c1 [Example 53] | – | 90 to 100 | 70 to 100 | 95 to 100 | 70 to 100 | mortality at 0.1 % [5]: 100%
Cc1cc(C)c(-c2c(O)cc(-c3ccco3)oc2=O)c(C)c1 [Example 56] | 100 | – | 70 to 100 | 95 to 100 | 70 to 100 | killing at 100 ppm (Trichinella spiralis): 100%
Cc1cc(C)c(-c2c(O)cc(-c3cccs3)oc2=O)c(C)c1 [Example 58] | 100 | – | – | – | – | –
Cc1cc(C)c(-c2c(O)cc(-c3cc(Cl)c(Cl)s3)oc2=O)c(C)c1 [Example 60] | – | 90 to 100 | – | 95 to 100 | 70 to 100 | –
Cc1cc(C)c(-c2c(O)cc(-c3ccc(Cl)s3)oc2=O)c(C)c1 [Example 61] | – | – | – | – | – | mortality at 0.1 % [5]: 100%
Cc1cc(C)c(-c2c(O)cc(-c3cc(C)sc3C)oc2=O)c(C)c1 [Example 62] | 100 | 90 to 100 | – | 95 to 100 | – | –
Cc1cc(C)c(-c2c(O)cc(-c3cccnc3)oc2=O)c(C)c1 [Example 63] | – | 90 to 100 | 70 to 100 | 95 to 100 | 70 to 100 | –
Cc1cc(C)c(-c2c(O)cc(-c3c(C)cc(C)nc3C)oc2=O)c(C)c1 [Example 65] | 100 | – | – | – | – | mortality at 0.1 % [6]: 100%
Cc1cc(C)c(-c2c(O)c3c(oc2=O)CCCC3)c(C)c1 [Example 68] | 100 | 90 to 100 | 70 to 100 | 95 to 100 | 70 to 100 | –
Cc1cc(C)c(-c2c(O)c3c(oc2=O)CCC3)c(C)c1 [Example 69] | 100 | 90 to 100 | 70 to 100 | 95 to 100 | 70 to 100 | –
Cc1cc(C)c(-c2c(O)c3c(oc2=O)CCOC3)c(C)c1 [Example 71] | 100 | – | – | – | – | –
CC(=O)Oc1c(C)c(C)oc(=O)c1-c1c(C)cc(C)cc1C [Example 81] | – | 90 to 100 | 70 to 100 | 95 to 100 | 70 to 100 | mortality at 0.1 % [5]: 100%
CC(=O)Oc1cc(C(C)(C)C)oc(=O)c1-c1c(C)cc(C)cc1C [Example 84] | 100 | 90 to 100 | 70 to 100 | 95 to 100 | 70 to 100 | mortality at 0.01 % [2, 7]: 100%
Cc1cc(C)c(-c2c(OC(=O)C(C)C)cc(C(C)(C)C)oc2=O)c(C)c1 [Example 85] | 100 | – | – | – | – | mortality at 0.01 % [2, 7]: 100%
CCOC(=O)Oc1c(C)c(C)oc(=O)c1-c1c(C)cc(C)cc1C [Example 88] | – | 90 to 100 | – | 95 to 100 | 70 to 100 | mortality at 0.1 % [5]: 100%; mortality at 0.01 % [2, 7]: 100%
